The source of these data is patent publication EP0064820A1, “Substituted imidazole and imidazoline derivatives and their preparation and use” (Farmos-Yhtyma Oy, priority 1981, dated 1982).

The test system of one data set is thrombocytes from a cow. Put plainly: antithrombotic activity in vitro: inhibition of ADP- and collagen-induced aggregation of thrombocytes, turbidimetric. The format is cell-based. The following applies: cow plasma; for inhibition of ADP-induced aggregation of thrombocytes: ADP added after 10 min incubation; for inhibition of collagen-induced aggregation of thrombocytes: collagen added after 10 min incubation. The procedure: The antithrombotic activity was investigated in vitro. The inhibiting activity of the compounds against ADP- and collagen-induced aggregation of thrombocytes was measured. In the test thrombocytes from a cow were used. To 1.2 ml of plasma containing 250000 thrombocytes/mm^3 were added 50 µl of a solution of the compound to be tested. After 10 min incubation either ADP or collagen was added. The aggregation of the thrombocytes was turbidimetrically determined at X = 605 nm.

A short description of data set [1]: acute toxicity in mice, i.v. The following applies: mouse, in vivo, iv. The procedure:
Acute toxicity was determined by using female mice of NMRI-Strain with an age of about 7 months and weighing 30-40 g. The administration of the test compound was i.v.

Data set [2] deals with Sprague-Dawley rats. The data set can be described thus: anti-hypertensive test in urethane-anesthetized rats, blood pressure and pulse frequency recorded after injection. The format is in vivo. On the procedure:
The anti-hypertensive properties of the imidazole derivatives of the present invention have been determined according to the following procedure. Sprague-Dawley rats of normal weight were first anesthetized with urethane. After this, the femoral artery was connected by way of a polyethylene tube with a blood pressure transducer. The test substance was then injected into the femoral vein and the blood pressure and the pulse frequency were registered with a recorder.

Data set [3] has as its system Sprague-Dawley rats. The description is as above. The format is in vivo. The following applies: i.c.v. dosage compared with i.v.
The mark [4] stands for this setting: dose of the maximum not stated, within the active dose range.

As usually defined, the LD50 is the dose at which mortality reaches 50%. High values mean lower toxicity, low ones greater toxicity. As to `Cc1cccc(C)c1CCC(O)c1nccn1Cc1ccccc1` (centres unmarked) [1-Benzyl-2-[3-(2,6-dimethylphenyl)-1-hydroxypropyl]-imidazole], in the data set on thrombocytes from a cow, the “inhibition of ADP-induced aggregation of thrombocytes” value is listed as “effectively” and the “inhibition of collagen-induced aggregation of thrombocytes” value is reported as “effectively”. In data set [1], the LD50 stood at 65 mg/kg.

For the compound `Cc1ccccc1Cc1nc(C)c(C)[nH]1` [2-(2-methylbenzyl)-4,5-dimethyl-imidazole], in the data set on thrombocytes from a cow, the “inhibition of ADP-induced aggregation of thrombocytes” value was “effectively” and the “inhibition of collagen-induced aggregation of thrombocytes” value was “effectively”. In addition, in data set [1], the LD50 came out at 30 mg/kg.

In the case of `Cc1c[nH]c(CCc2cccc(C)c2C)n1` [2-[2-(2,3-dimethylphenyl)-ethyl]-4-methyl-imidazole], in the data set with Sprague-Dawley rats [2] (setting [4]), the “maximal decrease of the blood pressure” value stood at 32%. In the data set with thrombocytes from a cow, the “inhibition of ADP-induced aggregation of thrombocytes” value is given as “effectively” and the “inhibition of collagen-induced aggregation of thrombocytes” value is recorded as “effectively”. This compound also had an LD50 in data set [1] of 35 mg/kg.

On to `Cc1cccc(CCC2=NCCN2)c1C` [2-[2-(2,3-dimethylphenyl)-ethyl]-imidazoline], for which the “maximal decrease of the blood pressure” value in the data set with Sprague-Dawley rats [2] (setting [4]) was determined as 26%. The same compound came in with a 50% lethal dose (LD50) in data set [1] of 30 mg/kg.

`Cc1ccc(C)c(CC(O)c2ncc[nH]2)c1` (centres unmarked) [2-[2-(2,5-dimethylphenyl)-1-hydroxyethyl]-imidazole]: in the data set on thrombocytes from a cow, the “inhibition of ADP-induced aggregation of thrombocytes” value was “effectively” and the “inhibition of collagen-induced aggregation of thrombocytes” value was “effectively”. Besides, the median lethal dose (LD50) in data set [1] is 45 mg/kg.

In the case of `Cc1ccc(C)c(CCc2ncc[nH]2)c1` [2-[2-(2,5-dimethylphenyl)-ethyl]-imidazole], the “maximal decrease of the blood pressure” value with Sprague-Dawley rats [2] (obtained with a dose of 10 mg/kg i.v.) came out at 37%. In data set [1], this compound yielded a median lethal dose (LD50) of 30 mg/kg.

With `Cc1cccc(C)c1C=Cc1ncc[nH]1` [2-[2-(2,6-dimethylphenyl)-ethenyl]-imidazole], the “lowers the blood pressure by” value in the data set with Sprague-Dawley rats [2] (dose 3 mg/kg i.v. in rats) worked out at 17 per cent. For the same compound, the pulse frequency entry with Sprague-Dawley rats [2] (dose not stated) is recorded as “no effect”. The compound also gave a median lethal dose (LD50) in data set [1] of 40 mg/kg.

In the case of `Cc1c[nH]c(CCc2c(C)cccc2C)n1` [2-[2-(2,6-dimethylphenyl)-ethyl]-4-methyl-imidazole], in the data set with Sprague-Dawley rats [2] (dosage 300 µg/kg i.v.), the “lowered the blood pressure by” value is 45%. In data set [1], this compound gave an LD50 of 25 mg/kg.

Regarding `Cc1cccc(C)c1CCc1ncc[nH]1` [2-[2-(2,6-dimethylphenyl)-ethyl]-imidazole], in the data set on Sprague-Dawley rats [3], the “blood pressure lowered by i.c.v. dosage with smaller amounts (than i.v.)” value is recorded as 10 x. Moreover, the pulse frequency result in the data set on Sprague-Dawley rats [2] (at high dosages) is recorded as “slight decrease”. In addition, the “effect on blood pressure” value with Sprague-Dawley rats [2] (dose 300 µg/kg i.v.) is “lowered blood pressure of long duration”; in the data set with Sprague-Dawley rats [2] (dose 30 and 100 µg/kg i.v. in rats), “lowered the blood pressure for a shorter time”; in the data set with Sprague-Dawley rats [2] (doses of 30 mg/kg i.v.), “did not elevate the blood pressure”. Further, in the data set on Sprague-Dawley rats [2] (dose 3 mg/kg i.v., rats), the “decrease of the blood pressure” value stood at 30%. In the data set with thrombocytes from a cow, the “inhibition of ADP-induced aggregation of thrombocytes” value is recorded as “effectively”. Further, the “inhibition of collagen-induced aggregation of thrombocytes” value with thrombocytes from a cow is “effectively”. In data set [1], this compound gave an LD50 of 20 mg/kg.

Turning to `Cc1cccc(C)c1CCC1=NCCN1` [2-[2-(2,6-dimethylphenyl)-ethyl]-imidazoline], in the data set with Sprague-Dawley rats [2] (dose 1-3 mg/kg in rats), the “lowers the blood pressure by” value is listed as 20%. In data set [1], the LD50 is 25 mg/kg.

Consider `Cc1cccc(C)c1CC(O)c1ncc[nH]1` (stereo not drawn) [2-[2-(2,6-dimethylphenyl)-l-hydroxyethyl]-imidazole], for which the “effect on blood pressure” value in the data set with Sprague-Dawley rats [2] (dose 10 mg/kg) was “lowers the blood pressure for a longer period”; in the data set with Sprague-Dawley rats [2] (dose 1 and 3 mg/kg i.v.), “lowering of the blood pressure of short duration”. The pulse frequency result in the data set on Sprague-Dawley rats [2] (dose not stated) is listed as “very slightly influenced”. In data set [1], this compound had a 50% lethal dose (LD50) of 60 mg/kg.

Regarding `Cc1ccc(CC(O)c2ncc[nH]2)cc1C` (centres unmarked) [2-[2-(3,4-dimethylphenyl)-1-hydroxyethyl]-imidazole], the “maximal decrease of the blood pressure” value in the data set with Sprague-Dawley rats [2] (setting [4]) stood at 17%. Also, the LD50 in data set [1] was determined as 50 mg/kg.

As to `Cc1ccc(CCc2ncc[nH]2)cc1C` [2-[2-(3,4-dimethylphenyl)-ethyl]-imidazole], the “lowered the blood pressure by” value with Sprague-Dawley rats [2] (dose 10 mg/kg) is 20%. Besides, in data set [1], the LD50 came to 40 mg/kg.
